Experimental data reported in publication PMC8397403, “Physiologically Based Pharmacokinetic Modeling of Transporter-Mediated Hepatic Disposition of Imaging Biomarker Gadoxetate in Rats” (Molecular Pharmaceutics, 2021).
Like-named read-outs stand apart in the source and are kept apart here.

Key:
plated rat hepatocytes = experiment: In vitro uptake kinetics of gadoxetate in plated rat hepatocytes (mechanistic hepatocyte model); format: in vitro ADME; settings: for % passive: CLpassive,u/(CLactive,u + CLpassive,u); for CLactive,u: Vmax/Km,u; for Km: read-out: Km,u
Experimental: Male adult Sprague-Dawley rats (Charles River, Margate, Kent, UK) were housed in groups of two in individually ventilated cages with free access to food (Chow rat and mouse diet) and fresh drinking water. The designated rat housing facility maintained a controlled temperature (20 ± 3 °C), humidity (40–70%), and 12 h light/dark cycle conditions. All animal protocols were approved by the University of Manchester review committee and adhered to the UK Home Office Animals (Scientific Procedures) Act (1986). Rats (250–300 g) were sacrificed using CO2 overdose followed by cervical dislocation in the morning of the study day. The kinetics experiment, as described below, was performed using n = 4 animals. A minimum of n = 3 was required to explore interanimal variability in kinetic parameters, with surplus hepatocytes also used from an additional animal that was part of a separate project. Primary rat hepatocytes, prepared as described below, were used to evaluate test compound cytotoxicity/effect on hepatocyte attachment (n = 3), preliminary assays to determine uptake assay conditions (n = 4), and for assays that were failed, for example, poor cell viability (n = 6 animals).
Isolation of hepatocytes using ex vivo collagenase perfusion was performed, followed by cell count and viability assessment, as previously described.[34]−[36] Cell preparations with viability <85% were not used for experiments. Hepatocytes were seeded at 240,000 cells per well in collagen I-coated 24-well plates, and incubated for at least 2 h at 37 °C and 95% air/5% CO2 to allow cell attachment to the plate.[36]
Uptake experiments were performed at 37 °C with duplicate incubations per condition, as previously described.[35] Uptake of gadoxetate (Primovist injection solution, Bayer, Germany) was evaluated following incubation (0.5–150 min) at nominal media concentrations of 0.01–10 mM. Extended incubation timepoints (up to 150 min) were selected based on previous publications[35] and existing in-house data to enable characterization of the steady-state intracellular concentration. Uptake of pitavastatin (Sequoia Research Products Ltd, Pangbourne, UK) (0.2 μM) in the absence and presence of a pan-inhibitor of uptake transporters, rifamycin SV (Sigma-Aldrich, Poole, UK) (100 μM), was also evaluated for 0.5–2 min as positive control for functional transporter activity. Following sample preparation including addition of internal standard (Table S1), gadoxetate and pitavastatin in cell samples, and gadoxetate in media samples, were quantified by liquid chromatography–tandem mass spectrometry (LC–MS/MS). LC–MS/MS quantification was performed using selective reaction monitoring (SRM) against calibration standards; only standards within 30% of nominal concentration were included. The protein content of plated rat hepatocytes was measured using the Pierce BCA Protein Assay Kit (Thermo Fisher Scientific, Paisley, UK).
In vitro hepatocyte uptake (i.e., the amount of gadoxetate in cell as quantified by LC–MS/MS) (pmol) at each time point was normalized for cellularity using the measured protein content and assuming that 10^6 hepatocytes contain 1 mg protein.[34] For gadoxetate, the data from each animal were used for simultaneous estimation of in vitro kinetic parameters using a mechanistic hepatocyte model reported previously.[35] It should be noted that CLpassive,u implies nonsaturable clearance equal in both directions under experimental conditions (0.01–10 mM). [drawing 1] 1 where Km,u represents the unbound Michaelis constant (μM); Vmax the maximum transport rate (pmol/min/10^6 cells); and fu,cell the fraction unbound in cell and nonsaturable, bidirectional clearance (CLpassive,u; μL/min/10^6 cells). ccell and cmedium represent concentrations in cell and medium compartments, respectively, and Vcell represents the cell volume.
Intracellular concentrations were calculated assuming a hepatocyte cell volume of 3.9 μL/10^6 cells.[35] […]

[1] = set-up: method as in PMID 32851735; settings: cited from earlier work; for Ex vivo relaxivity r1, blood: spleen assumed equal to blood

SMILES: CCOc1ccc(C[C@@H](CN(CCN(CC(=O)[O-])CC(=O)[O-])CC(=O)[O-])N(CC(=O)[O-])CC(=O)[O-])cc1.[Gd+3].[H+].[H+] [gadoxetate]
- maximum % active (plated rat hepatocytes; CLactive,u/(CLactive,u + CLpassive,u), animal 1): 97%
- maximum % active (plated rat hepatocytes; CLactive,u/(CLactive,u + CLpassive,u), animal 2): 94%
- maximum % active (plated rat hepatocytes; CLactive,u/(CLactive,u + CLpassive,u), animal 3): 91%
- maximum % active (plated rat hepatocytes; CLactive,u/(CLactive,u + CLpassive,u), animal 4): 94%
- % passive (plated rat hepatocytes; animal 1): 3%
- % passive (plated rat hepatocytes; animal 2): 6%
- % passive (plated rat hepatocytes; animal 3): 9%
- % passive (plated rat hepatocytes; animal 4): 6%
- % passive (plated rat hepatocytes; average of n = 4 animals): 6%
- CLactive,u (plated rat hepatocytes; animal 1): 3.07 μL/min/10^6 cells
- CLactive,u (plated rat hepatocytes; animal 2): 3.20 μL/min/10^6 cells
- CLactive,u (plated rat hepatocytes; animal 3): 2.78 μL/min/10^6 cells
- CLactive,u (plated rat hepatocytes; animal 4): 3.20 μL/min/10^6 cells
- CLactive,u (plated rat hepatocytes; average of n = 4 animals): 3.06 μL/min/10^6 cells
- CLpassive,u (plated rat hepatocytes; animal 1): 0.091 μL/min/10^6 cells
- Vmax (plated rat hepatocytes; animal 1): 350.4 pmol/min/10^6 cells
- Km (plated rat hepatocytes; animal 1): 114 µM
- CLpassive,u (plated rat hepatocytes; animal 2): 0.202 μL/min/10^6 cells
- Vmax (plated rat hepatocytes; animal 2): 370.9 pmol/min/10^6 cells
- Km (plated rat hepatocytes; animal 2): 116 µM
- CLpassive,u (plated rat hepatocytes; animal 3): 0.274 μL/min/10^6 cells
- Vmax (plated rat hepatocytes; animal 3): 221.7 pmol/min/10^6 cells
- Km (plated rat hepatocytes; animal 3): 79.8 µM
- CLpassive,u (plated rat hepatocytes; animal 4): 0.203 μL/min/10^6 cells
- Vmax (plated rat hepatocytes; animal 4): 368.8 pmol/min/10^6 cells
- Km (plated rat hepatocytes; animal 4): 115 µM
- CLpassive,u (plated rat hepatocytes; average of n = 4 animals): 0.193 μL/min/10^6 cells
- Vmax (plated rat hepatocytes; average of n = 4 animals): 327.95 pmol/min/10^6 cells
- Km (plated rat hepatocytes; average of n = 4 animals (CV %)): 106 µM
- maximum % active (plated rat hepatocytes; contribution of active saturable uptake to total uptake, average of n = 4 animals): 94%
- fu,liv,cell (plated rat hepatocytes; fraction unbound in cell (fu,cell), average of n = 4 animals (CV %)): 0.648
- fu,liv,cell (plated rat hepatocytes; fraction unbound in cell (fu,cell), average of n = 4 animals (CV %), listed as Gadoxetate): 0.65 (24%)
- fu,liv,cell (plated rat hepatocytes; fraction unbound in cell, animal 1): 0.759
- fu,liv,cell (plated rat hepatocytes; fraction unbound in cell, animal 2): 0.709
- fu,liv,cell (plated rat hepatocytes; fraction unbound in cell, animal 3): 0.418
- fu,liv,cell (plated rat hepatocytes; fraction unbound in cell, animal 4): 0.704
- Ex vivo relaxivity r1, hepatocytes ([1]; 4.7 T): 7.6 s^–1/mM
- Ex vivo relaxivity r1, blood ([1]; 4.7 T): 6.4 s^–1/mM
- Ex vivo relaxivity r1, hepatocytes ([1]; 7 T): 6 s^–1/mM
- Ex vivo relaxivity r1, blood ([1]; 7 T): 6.2 s^–1/mM
